Test [1] has as its system wildtype α1 GlyR. It is filed as cell-based, human.
For test [2], the target named is T1, D97R α1 GlyR (Homo sapiens, UniProt P23415, D125R).
T1 sequence (P23415 29-449 isoform P23415-2 D125R limits assumed): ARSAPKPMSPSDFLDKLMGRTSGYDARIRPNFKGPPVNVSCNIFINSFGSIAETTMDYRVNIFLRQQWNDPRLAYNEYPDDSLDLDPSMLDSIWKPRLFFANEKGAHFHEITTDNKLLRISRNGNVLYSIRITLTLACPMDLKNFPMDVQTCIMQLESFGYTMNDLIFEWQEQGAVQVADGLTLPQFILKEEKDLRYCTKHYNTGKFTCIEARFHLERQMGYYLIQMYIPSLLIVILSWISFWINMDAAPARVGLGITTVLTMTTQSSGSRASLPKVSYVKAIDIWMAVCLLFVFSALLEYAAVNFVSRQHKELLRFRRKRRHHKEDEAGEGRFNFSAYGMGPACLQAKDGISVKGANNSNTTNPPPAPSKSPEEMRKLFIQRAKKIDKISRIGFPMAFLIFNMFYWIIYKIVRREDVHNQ
It is filed as cell-based. Particulars: for average current elicited: 10 mM glycine or 100 mM taurine; for increase of maximal currents by the D97R mutation: D97R versus WT; for Imax (% of max glycine): D97R, percentage of maximal glycine current ± S.E.M.

Test [3] deals with D97A α1 GlyR. Particulars: for Popen of clusters: D97A, saturating concentration (100 mM taurine, 10 mM glycine), 2.5 mM tricine.
Test [4] deals with D97 mutant GlyR. Particulars: saturating concentrations of glycine or taurine.
Test [5] deals with T2, human α1 glycine receptor WT (Homo sapiens, UniProt P23415).
T2 sequence (P23415 29-449 isoform P23415-2 limits assumed): T1 sequence (P23415 29-449 isoform P23415-2 D125R limits assumed) with R97D
It is filed as cell-based. Particulars: for average current elicited: WT GlyR, 10 mM glycine or 100 mM taurine; for Imax (% of max glycine): α1 WT, percentage of maximal glycine current ± S.E.M.

Test [6] addresses T1, D97R α1 GlyR. It is filed as cell-based. Particulars: for conductance of the openings: in the presence of taurine or glycine; for Popen of clusters: saturating concentration (100 mM taurine, 10 mM glycine), 2.5 mM tricine.
The target in test [7] is T3, D97E α1 GlyR (Homo sapiens, UniProt P23415, D125E).
T3 sequence (P23415 29-449 isoform P23415-2 D125E limits assumed): T1 sequence (P23415 29-449 isoform P23415-2 D125R limits assumed) with R97E
It is filed as cell-based. Particulars: for average current elicited: D97E α1 GlyR, 10 mM glycine or 100 mM taurine.

Consider four molecules from paper PMC5303145 (Brain research, 2016).

Changes are numbered by the printed parent chain.

As a reminder, the EC50 is the concentration giving half of the maximal effect. Lower therefore signals greater potency.

`NCCS(=O)(=O)O` [Taurine] had a Popen in test [1] of 0.62 ± 0.06. In test [2] (D97R GlyR, 100 mM taurine vs 10 mM glycine), the “maximal taurine response versus maximal glycine response” value was “approximately equal”. Further, the average current elicited in test [2] (D97R α1 GlyR) turned out to be 3.56 ± 0.36 μA; in test [5] it was 11.8 ± 1.7 μA; in test [7], 11.4 ± 2.9 μA. Moreover, the “greater current than glycine” value in test [2] (D97R α1 GlyR, taurine and glycine both at 300 mM) is on record as 12.7 ± 7.1%. Also, the Popen of clusters in test [3] is given as 0.987 ± 0.003; in test [6], 0.990 ± 0.002. In addition, the whole-cell current in test [4] is 3000–5000 nA. In addition, in test [5] (EC50, α1 WT, whole-cell, oocytes, 2.5 mM tricine), the EC50 was determined as 1.96 mM. Also, the “Imax (% of max glycine)” value is 41 ± 4.5% in test [5] and 95.6 ± 4.7% in test [7] (D97E, percentage of maximal glycine current ± S.E.M.). For the same molecule, the “conductance of the openings” value in test [6] is “approximately 75 pS”.
For the molecule `CC(CN)C(=O)O` (stereo not drawn) [β-AIBA, β-aminoisobutyric acid], in test [2], the “increase of maximal currents by the D97R mutation” value was “four- to five-fold” and the “Imax (% of max glycine)” value worked out at 61%. Moreover, in test [5], the “Imax (% of max glycine)” value was determined as 15.3 ± 3.3%.
In the case of `NCC(=O)O` [Glycine], the average current elicited is given as 3.68 ± 0.37 μA in test [2] (D97R α1 GlyR), 27.6 ± 2.9 μA in test [5] and 11.9 ± 2.9 μA in test [7]. Also, the “total current in patch” value in test [3] (D97A multi-channel patch, sample tracing, 10 mM glycine) turned out to be 84 pA. Moreover, the Popen of clusters in test [3] came to 0.938 ± 0.044; in test [6] it was 0.990 ± 0.001. For the same molecule, the whole-cell current in test [4] was 3000–5000 nA. For the same molecule, the “conductance of the openings” value in test [6] is given as “approximately 75 pS”.
On to `CC(N)CC(=O)O` (stereo not drawn) [β-ABA, β-aminobutyric acid], for which, in test [2], the “increase of maximal currents by the D97R mutation” value is “four- to five-fold” and the “Imax (% of max glycine)” value came out at 89%. The “Imax (% of max glycine)” value in test [5] worked out at 17.3 ± 9.2%.
